Some results are limits rather than exact numbers.

The EC50 is the concentration needed to bring the measured effect to its halfway point. A high value points to lower potency in that assay. What is called CC50 is the concentration giving 50% cytotoxicity. A higher CC50 goes with lower toxicity to the cells.

Series [1] concerns HCV replicon in human hepatoma Huh-7 cell line. The series is described as follows: Anti-HCV replicon assay, EC50 (luciferase luminescence). Format: cell-based. The conditions noted are these: Hepatitis C virus, Huh-7, 72 h. The procedure:
(§1) The anti-HCV activity of the pyrido[3,2-d]pyrimidine derivatives of this invention was tested in a human hepatoma Huh-7 cell line harboring a HCV replicon. The assay comprised the following steps: • Step 1: compound preparation and serial dilution: serial dilution is performed in 50% DMSO in a 384-well plate. A solution containing a compound at 100-fold concentration of the starting final serial dilution concentration was prepared in 50% DMSO and added to the pre-specified wells in column 1 of a polypropylene 384-well plate. The plate was then placed on a Precision 2000 Workstation to start the serial dilution. After the serial dilution, a volume of 2 μL of the solution was transferred from the 384-well plate to a 96-well cell culture plate containing 100 μL of cell media on a Biomek FX Workstation. The DMSO concentration in the final assay condition was 0.5% after cells are added to the plate and the total volume in each well is brought to 200 μL. • Step 2: to each well of the serial dilution plate prepared above, 100 μL of cell media containing 6000 suspended Huh-7 HCV replicon cells was added with a Multidrop workstation. The plates were incubated for 3 days at 37° C. with 5% CO2. • Step 3: detection: • a) for the EC50 assay, the media in a 96-well cell culture plate was aspirated with a Biotek EL405 plate-washer. A volume of 200 μL of a solution containing a 1:1 mixture of cell-lysis buffer (Promega, Luciferase Cell Culture Lysis 5× Reagent, cat. #E1531) and luciferase substrate solution (Promega, Luciferase Assay, cat.# E4550) was added to each well of the plate with Multidrop. The plate was incubated for 30 minutes at room temperature before the luminescence signal was measured with a TopCount plate-reader. • b) for the CC50 assay, a volume of 100 μL of pre-mixed CellTiter-Glo (Promega, cat.# G7572) solution is added directly to the cell culture in each well of the plate and the luminescence signal is measured with a TopCount plate-reader after 10 minutes of incubation at room temperature.

A short description of series [2]: CC50 assay (CellTiter-Glo) in Huh-7 HCV replicon cells. It counts as cell-based. Conditions: human. The procedure: as §1
(ATP-based viability assays read luminescence as a measure of living cells.)

`NS(=O)(=O)c1ccc(CNc2nc(NCC(F)(F)F)c3nc(-c4ccc(F)cc4)ccc3n2)cc1F` [Example 3, 2-Fluoro-4-{[6-(4-fluoro-phenyl)-4-(2,2,2-trifluoro-ethylamino)-pyrido[3,2-d]pyrimidin-2-ylamino]-methyl}-benzenesulfonamide] displayed an EC50 in series [1] of 250 to 2000 nM. The compound further registered a CC50 at 3 days in series [2] (Table 1, 3 days incubation) of more than 25000 nM.

In series [1], `C[C@@H](Nc1nc(NCC(F)(F)F)c2nc(C#CC3CC3)ccc2n1)c1ccc(S(N)(=O)=O)cc1` [Example 275, (R)-4-(1-(6-(2-cyclopropyl-ethynyl)-4-(2,2,2-trifluoro-ethylamino)pyrido[3,2-d]pyrimidin-2-ylamino)ethyl) benzenesulfonamide] had an EC50 of less than 100 nM. This compound also had a half-maximal cytotoxic concentration (CC50) at 3 days in series [2] (Table 2, 3 days incubation) of more than 10000 nM.

`C[C@@H](Nc1nc(NC2(C(F)(F)F)CC2)c2nc(-c3ccc(N)nc3)ccc2n1)c1ccc(-n2cncn2)cc1` [Example 84, N^2-((R)-1-(4-(1H-1,2,4-triazol-1-yl)phenyl)ethyl)-6-(6-aminopyridin-3-yl)-N^4-(1-(trifluoromethyl)cyclopropyl) pyrido[3,2-d]pyrimidine-2,4-diamine] yielded an EC50 in series [1] of less than 100 nM. This compound returned a 50% cytotoxic concentration (CC50) at 3 days in series [2] (Table 2, 3 days incubation) of 1000 to 10000 nM.

`CCOc1ccc(-c2ccc3nc(NCc4ccc(-n5ccnc5)cc4)nc(NCC(F)(F)F)c3n2)cc1S(N)(=O)=O` [Example 262, 5-(2-(4-(1H-imidazol-1-yl)benzylamino)-4-(2,2,2-trifluoroethylamino)pyrido [3,2-d]pyrimidin-6-yl)-2-ethoxybenzenesulfonamide] registered an EC50 in series [1] of less than 100 nM. In series [2] (Table 2, 3 days incubation), this compound returned a CC50 at 3 days of 1000 to 10000 nM.

In series [1], `C[C@H](Cn1cncn1)Nc1nc(NCC(F)(F)F)c2nc(-c3cccc(S(C)(=O)=O)c3)ccc2n1` [Example 168, N^2-((R)-1-(1H-1,2,4-triazol-1-yl)propan-2-yl)-6-(3-(methylsulfonyl)phenyl)-N^4-(2,2,2-trifluoroethyl)pyrido [3,2-d]pyrimidine-2,4-diamine] came in with an EC50 of 100 to 250 nM. Also, in series [2] (Table 2, 3 days incubation), the CC50 at 3 days was more than 10000 nM.

The compound `NS(=O)(=O)c1cc(Cl)cc(CNc2nc(NC3(C(F)(F)F)CC3)c3nc(-c4ccc(NC(=O)C5(C(F)(F)F)CC5)cc4)ccc3n2)c1` [Example 48, 3-chloro-5-((6-(4-(1-(trifluoromethyl)cyclopropyl-carboxamido)phenyl)-4-(1-(trifluoromethyl)cyclopropyl-amino)pyrido[3,2-d]pyrimidin-2-ylamino)methyl)benzene-sulfonamide] displayed an EC50 in series [1] of less than 100 nM. The CC50 at 3 days in series [2] (Table 2, 3 days incubation) is 1000 to 10000 nM.

In the case of `NS(=O)(=O)c1cccc(CNc2nc(NC3(C(F)(F)F)CC3)c3nc(-c4ccc(F)cc4)ccc3n2)c1` [Example 116, 3-((6-(4-fluorophenyl)-4-(1-(trifluoromethyl)cyclopropyl-amino)pyrido[3,2-d]pyrimidin-2-ylamino)methyl)benzene-sulfonamide], the EC50 in series [1] was less than 100 nM. In series [2] (Table 2, 3 days incubation), this compound registered a CC50 at 3 days of more than 10000 nM.

Regarding `[2H]C([2H])([2H])C([2H])([2H])Oc1ccc(-c2ccc3nc(NCc4ccc(-n5cncn5)cc4)nc(NCC(F)(F)F)c3n2)cn1` [Example 256, N^2-(4-(1H-1,2,4-triazol-1-yl)benzyl)-6-(6-pentadeutero-ethoxypyridin-3-yl)-N^4-(2,2,2-trifluoroethyl)pyrido[3,2-d] pyrimidine-2,4-diamine], the EC50 in series [1] is less than 100 nM. Further, the CC50 at 3 days in series [2] (Table 2, 3 days incubation) was more than 10000 nM.

The compound `COc1ccc(-c2ccc3nc(NCc4ccc(F)c(F)c4)nc(NC4(C(F)(F)F)CC4)c3n2)cc1S(C)(=O)=O` [Example 44, N^2-(3,4-difluorobenzyl)-6-(4-methoxy-3-(methylsulfonyl)phenyl)-N^4-(1-(trifluoromethyl)cyclopropyl)pyrido[3,2-d] pyrimidine-2,4-diamine] had an EC50 in series [1] of less than 100 nM. Further, the CC50 at 3 days in series [2] (Table 2, 3 days incubation) fell in the range of 1000 to 10000 nM.

As for `NS(=O)(=O)c1ccc(Cl)c(CNc2nc(NC3(C(F)(F)F)CC3)c3nc(-c4ccc(F)cc4)ccc3n2)c1` [Example 41, 4-chloro-3-((6-(4-fluorophenyl)-4-(1-(trifluoromethyl)cyclopropyl-amino)pyrido[3,2-d]pyrimidin-2-ylamino)methyl)benzene-sulfonamide], the EC50 in series [1] lay in the range of 100 to 250 nM. Further, in series [2] (Table 2, 3 days incubation), the CC50 at 3 days fell in the range of 1000 to 10000 nM.

Compound `NS(=O)(=O)c1ccc(CNc2nc(NC3(C(F)(F)F)CC3)c3nc(-c4cccc(N5CCCS5(=O)=O)c4)ccc3n2)cc1` [Example 51, 4-((6-(3-(1,1-dioxo-isothiazolidin-2-yl)phenyl)-4-(1-(trifluoromethyl)cyclopropyl-amino)pyrido[3,2-d]pyrimidin-2-ylamino)methyl)benzene-sulfonamide] gave an EC50 in series [1] of 250 to 2000 nM. The same compound registered a CC50 at 3 days in series [2] (Table 2, 3 days incubation) of 1000 to 10000 nM.

In the case of `CCOc1ccc(-c2ccc3nc(N[C@H](C)Cn4cncn4)nc(NCC(F)(F)F)c3n2)cn1` [Example 232, N^2-((R)-1-(1H-1,2,4-triazol-1-yl)propan-2-yl)-6-(6-ethoxypyridin-3-yl)-N^4-(2,2,2-trifluoroethyl)pyrido[3,2-d] pyrimidine-2,4-diamine], the half-maximal effective concentration (EC50) in series [1] is less than 100 nM. In series [2] (Table 2, 3 days incubation), this compound gave a CC50 at 3 days of 1000 to 10000 nM.

In series [1], `CCOc1ccc(-c2ccc3nc(N[C@H](C)c4ccc(-n5cncn5)cc4)nc(NCC(F)(F)F)c3n2)cc1S(N)(=O)=O` [Example 265, 5-(2-((R)-1-(4-(1H-1,2,4-triazol-1-yl)phenyl)ethylamino)-4-(2,2,2-trifluoroethylamino)pyrido [3,2-d]pyrimidin-6-yl)-2-ethoxybenzenesulfonamide] returned a concentration giving a half-maximal response (EC50) of less than 100 nM. Further, in series [2] (Table 2, 3 days incubation), the CC50 at 3 days fell in the range of 1000 to 10000 nM.

The compound `C#Cc1ccc2nc(NCc3ccc(S(N)(=O)=O)cc3)nc(OC3CC3)c2n1` [Example 300, 4-((4-cyclopropoxy-6-ethynylpyrido[3,2-d]pyrimidin-2-ylamino)methyl) benzenesulfonamide] registered an EC50 in series [1] of 250 to 2000 nM. Moreover, the CC50 at 3 days in series [2] (Table 2, 3 days incubation) is 1000 to 10000 nM.

Compound `C[C@@H](Nc1nc(OC2CC2)c2nc(C#CC3CC3)ccc2n1)c1ccc(S(N)(=O)=O)cc1` [Example 32, (R)-4-(1-(4-cyclopropoxy-6-(2-cyclopropylethynyl)pyrido[3,2-d]pyrimidin-2-ylamino)ethyl)benzenesulfonamide] registered an EC50 in series [1] of less than 100 nM. This compound also had a CC50 at 3 days in series [2] (Table 2, 3 days incubation) of more than 10000 nM.

The compound `CS(=O)(=O)c1cccc(-c2ccc3nc(NCC(O)CO)nc(NCC(F)(F)F)c3n2)c1` (stereo not drawn) [Example 158, 3-(6-(3-(methylsulfonyl)phenyl)-4-(2,2,2-trifluoroethylamino)pyrido[3,2-d]pyrimidin-2-ylamino)propane-1,2-diol] returned an EC50 in series [1] of 250 to 2000 nM. The same compound had a CC50 at 3 days in series [2] (Table 2, 3 days incubation) of more than 10000 nM.

In turn, `NS(=O)(=O)c1cc(F)cc(CNc2nc(NC3(C(F)(F)F)CC3)c3nc(-c4ccc(F)nc4)ccc3n2)c1` [Example 77, 3-fluoro-5-((6-(6-fluoropyridin-3-yl)-4-(1-(trifluoromethyl)cyclopropylamino)pyrido[3,2-d]pyrimidin-2-ylamino)methyl) benzenesulfonamide] displayed an EC50 in series [1] of less than 100 nM. The compound also had a CC50 at 3 days in series [2] (Table 2, 3 days incubation) of more than 10000 nM.

`COc1ccc(-c2ccc3nc(NC(C)c4cc(F)cc(F)c4)nc(NCC(F)(F)F)c3n2)cc1S(C)(=O)=O` (stereo not drawn) [Example 180, N^2-(1-(3,5-difluorophenyl)ethyl)-6-(4-methoxy-3-(methylsulfonyl)phenyl)-N^4-(2,2,2-trifluoroethyl)pyrido [3,2-d]pyrimidine-2,4-diamine] gave an EC50 in series [1] of 100 to 250 nM. The CC50 at 3 days in series [2] (Table 2, 3 days incubation) was in the range of 1000 to 10000 nM.

(Values after patent publication US8536187B2 (Gilead Sciences, Inc., priority 2008, dated 2013).)
